# Assay results as given in patent publication US8058243B2, “Method for treating a brain cancer with ifenprodil” (HSC Research and Development Limited Partnership, priority 2006, dated 2011).
# Where two headings read alike, the source gives them in different places.
# What was measured:
# [1] = test system: murine neural precursor cells (neurosphere cultures); test: HTS of LOPAC library against secondary neurosphere cultures, MTT proliferation assay at 3 μM, day 7 (z score, P value); type: cell-based, mouse
# [2] = test system: mouse NSC neurosphere cultures; test: Dose-response curves and EC50, neurosphere MTT proliferation, 7 days; type: cell-based
# [3] = test system: ptc1+/− medulloblastoma precursor cells (neurosphere cultures); test: Medulloblastoma tumor sphere MTT proliferation EC50; type: cell-based, mouse
# Text: Astrocyte Screen and Neurosphere Selectivity Assessment. […] Murine Medulloblastoma Generation and Culture. […] Flow Cytometry. […] Results
# [4] = LOPAC primary screen, neurosphere MTT proliferation, 3 μM, day 7
# [5] = yes/no: significantly inhibited neurosphere proliferation (P<0.01) in the primary screen
# [6] = Table 8, read-out: Neurosphere EC50
# [7] = LOPAC library screen, 3 μM, MTT, secondary neurosphere cultures, day 7
# [8] = yes = significantly inhibited neurosphere proliferation (P<0.01) in the primary screen
# [9] = Mus musculus, read-out: EC 50% Neurosphere, Table 5
# [10] = Mus musculus, Table 8, read-out: Neurosphere EC50
# [11] = read-out: EC 50% Neurosphere, Table 5
# [12] = 168 h, normal mouse neurosphere cultures, MTT, 7 days, read-out: Neurosphere EC50
# [13] = Mus musculus, ptc1+/− medulloblastoma derived neurospheres, read-out: Medulloblastoma Neurosphere EC50
# [14] = cultures derived from mouse cerebellar tumor samples, read-out: Ptch1+/− neurosphere EC50
# [15] = LOPAC library screen at 3 μM, secondary neurosphere cultures, MTT
# [16] = LOPAC screen, neurosphere MTT proliferation, 3 μM, day 7
# [17] = yes/no: significantly inhibited neurosphere proliferation (P<0.01) in primary screen
# [18] = normal mouse neurosphere cultures, MTT, 7 days, read-out: Neurosphere EC50
# [19] = ptc1+/− medulloblastoma derived neurospheres, read-out: Medulloblastoma Neurosphere EC50
# [20] = primary LOPAC screen, 3 μM, MTT, neurosphere proliferation
# [21] = yes/no: significantly inhibited neurosphere proliferation in the primary screen
# [22] = yes/no: significantly inhibited neurosphere proliferation in primary screen
# [23] = LOPAC library screen, 3 μM, MTT, neurosphere cultures
compound,measurement,setting,value
"CCCCCCCCCCC/C=C\C(C)(C)/C=C\CCCC(=O)O [7,7-Dimethyl-(5Z,8Z)-eicosadienoic acid]",Z Score,[1],−3.045
same,Z score,[1]; [4],−3.045
same,Activity,[1]; [5],yes
same,EC50,[2]; [6],5170 nM
"CC(C)COCC(CN(Cc1ccccc1)c1ccccc1)N1CCCC1 (stereo not drawn) [Bepridil (28), Bepridil, reference compound]",Z Score,[1]; [7],−2.655
same,Z score,[1]; [4],−2.655
same,Activity,[1]; [8],yes
same,EC50,[2]; [9],2700 nM
same,EC50,[2]; [10],2700 nM
"CN1CCN(c2nc3cc(C(F)(F)F)ccc3n3cccc23)CC1.O=C(O)/C=C\C(=O)O [CGS-12066A (40), reference compound]",Z Score,[1]; [7],−2.575
same,Z score,[1]; [4],−2.575
same,Activity,[1]; [8],yes
same,EC50,[2]; [6],2010 nM
same,EC50,[2]; [11],2010 nM
"c1ccc2c(c1)[I+]c1ccccc1-2 [Diphenyleneiodonium (33), Diphenyleneiodonium, reference compound]",Z Score,[1]; [7],−10.07
same,Z score,[1]; [4],−10.068
same,Activity,[1]; [8],yes
same,EC50,[2]; [9],11 nM
same,EC50,[2]; [10],11 nM
"CC1=C(/C=C/C(C)=C/C=C/C(C)=C/C(=O)Nc2ccc(O)cc2)C(C)(C)CCC1 [Fenretinide (11), Retinoic acid p-hydroxyanilide]",Z Score,[1]; [7],−6.013
same,Z score,[1]; [4],−6.013
same,Activity,[1]; [5],yes
same,EC50,[2]; [12],334 nM
same,EC50,[2]; [9],334 nM
same,EC50,[2]; [10],334 nM
same,EC50,[3]; [13],204 nM
same,EC50,[3]; [14],204 nM
"S=C=Nc1cccc(C2(N3CCCCC3)CCCCC2)c1 [Metaphit (35), Metaphit, reference compound]",Z Score,[1],−4.967
same,Z score,[1]; [4],−4.967
same,Activity,[1]; [5],yes
same,EC50,[2]; [9],10000 nM
same,EC50,[2]; [10],10000 nM
"CC[C@H](C)C(=O)O[C@H]1CCC=C2C=C[C@H](C)[C@H](CC[C@@H]3C[C@@H](O)CC(=O)O3)[C@H]21 [Mevastatin (20), Mevastatin]",EC50,[2]; [10],142 nM
"COc1ccc(CCNC[C@H](O)c2ccc(O)cc2)cc1OC [R(−)-Denopamine (24), R(−)-Denopamine]",EC50,[2]; [6],39200 nM
Oc1ccc(-c2nc(-c3ccc(F)cc3)c(-c3ccncc3)[nH]2)cc1 [SB 202190 (13)],Z Score,[1]; [15],−1.124
same,Z score,[1]; [16],−1.124
same,Activity,[1]; [17],no
same,EC50,[2]; [6],8060 nM
same,EC50,[2]; [18],8060 nM
same,EC50,[2]; [11],8060 nM
same,EC50,[3]; [14],3010 nM
same,EC50,[3]; [19],3010 nM
"CC(C)COC(=O)OCN1C(=O)CN(CCN2CC(=O)N(COC(=O)OCC(C)C)C(=O)C2)CC1=O [Sobuzaxane (19), Sobuzaxane]",EC50,[2]; [6],10200 nM
"CC(=O)O[C@H]1C(=O)[C@@]2(C)[C@H]([C@H](OC(=O)c3ccccc3)[C@]3(O)C[C@H](OC(=O)[C@H](O)[C@@H](NC(=O)c4ccccc4)c4ccccc4)C(C)=C1C3(C)C)[C@]1(OC(C)=O)CO[C@@H]1C[C@@H]2O [Taxol (21), Taxol]",EC50,[2]; [10],10 nM
"CC[C@]1(O)C[C@@H]2CN(CCc3c([nH]c4ccccc34)[C@@](C(=O)OC)(c3cc4c(cc3OC)N(C)[C@H]3[C@@](O)(C(=O)OC)[C@H](OC(C)=O)[C@]5(CC)C=CCN6CC[C@]43[C@@H]65)C2)C1 [Vinblastine(22), Vinblastine]",EC50,[2]; [10],28 nM
"COc1cc2ncnc(Nc3ccc(O)cc3)c2cc1OC [WHI-P131 (12), 4-(4′-hydroxylphenyl)-amino-6,7-dimethoxyquinazoline]",EC50,[2]; [12],2350 nM
same,EC50,[2]; [9],2350 nM
same,EC50,[2]; [10],2350 nM
same,EC50,[3]; [13],1520 nM
same,EC50,[3]; [14],1520 nM
"Cl.Cl.OCCN1CCN(CC/C=C2/c3ccccc3Sc3ccc(C(F)(F)F)cc32)CC1 [cis-(Z)-Flupenthixol (7), cis-(Z)-Flupenthixol]",Z Score,[1]; [7],−8.822
same,Z score,[1]; [4],−8.822
same,Activity,[1]; [5],yes
same,EC50,[2]; [6],199 nM
same,EC50,[2]; [18],199 nM
same,EC50,[2]; [11],199 nM
same,EC50,[3]; [14],187 nM
same,EC50,[3]; [19],187 nM
(R)-(−)-Propylnorapomorphine [(R)-(−)-Propylnorapomorphine (5)],Activity,[1],yes
same,Z Score,[1],−8.274
same,Z score,[1],−8.274
same,EC50,[2]; [6],351 nM
same,EC50,[2]; [18],351 nM
same,EC50,[2]; [11],351 nM
same,EC50,[3]; [14],199 nM
same,EC50,[3]; read-out: Medulloblastoma Neurosphere EC50,199 nM
Hydroxytacrine maleate,Z Score,[1],−0.2043
same,Z score,[1]; [4],−0.204
same,Activity,[1]; [17],no
Iproniazid phosphate,Z Score,[1]; [15],−0.2492
same,Z score,[1]; [4],−0.249
same,Activity,[1]; [17],no
JL-18,Z Score,[1],−0.2861
same,Z score,[1]; [4],−0.286
same,Activity,[1]; [17],no
L(−)-Norepinephrine bitartrate,Z Score,[1]; [7],−1.418
same,Z score,[1]; [20],−1.418
same,Activity,[1]; [21],no
L-Hyoscyamine,Activity,[1],no
same,Z Score,[1],−0.661
same,Z score,[1],−0.661
L-Methionine sulfoximine,Activity,[1],no
same,Z Score,[1],0.08671
same,Z score,[1],0.087
"LY-310,762 hydrochloride",Z Score,[1],0.05111
same,Z score,[1]; [4],0.051
same,Activity,[1]; [5],no
"LY-367,265",Z Score,[1],−0.407
same,Z score,[1]; [4],−0.407
same,Activity,[1]; [17],no
"MDL 26,630 trihydrochloride",Z Score,[1],0.3274
same,Z score,[1]; [4],0.327
same,Activity,[1]; [8],no
Metaproterenol hemisulfate,Z Score,[1]; [15],−1.022
same,Z score,[1]; [4],−1.022
same,Activity,[1]; [8],no
NCS-356,Z Score,[1],2.833
same,Z score,[1]; [4],2.833
same,Activity,[1]; [8],no
NS 521 oxalate,Z Score,[1],−11.27
NSC 95397,Z Score,[1],−1.098
same,Z score,[1]; [4],−1.098
same,Activity,[1]; [5],no
O-(Carboxymethyl)hydroxylamine hemihydrochloride,Z Score,[1],−2.058
same,Z score,[1]; [20],−2.058
same,Activity,[1]; [21],no
Oxotremorine sesquifumarate salt,Z Score,[1],0.8552
same,Z score,[1]; [4],0.855
same,Activity,[1]; [22],no
Phenylbenzene-omega-phosphono-alpha-amino acid,Z Score,[1],−0.01423
same,Z score,[1]; [4],−0.014
same,Activity,[1]; [22],no
Picrotoxin,Z Score,[1],0.7771
same,Z score,[1]; [4],0.777
same,Activity,[1]; [22],no
Piribedil maleate,Z Score,[1]; [15],−0.3345
same,Z score,[1]; [4],−0.334
same,Activity,[1]; [5],no
Quipazine dimaleate,Z Score,[1],−1.444
same,Z score,[1]; [4],−1.444
same,Activity,[1]; [22],no
"R(−)-2,10,11-Trihydroxy-N-propylnoraporphine hydrobromide",Z Score,[1],−2.744
"R(−)-2,10,11-Trihydroxyaporphine hybrobromide",Z Score,[1],−3.309
R(−)-Apocodeine hydrochloride,Z Score,[1],−9.865
same,Z score,[1]; [4],−9.865
same,Activity,[1]; [5],yes
R(−)-Denopamine,Z Score,[1]; [7],−4.486
same,Z score,[1]; [4],−4.486
same,Activity,[1]; [5],yes
R(−)-Isoproterenol (+)-bitartrate,Z Score,[1]; [7],−1.485
same,Z score,[1]; [4],−1.485
same,Activity,[1]; [17],no
R(−)-Me5,Z Score,[1],−1.414
same,Z score,[1]; [4],−1.414
same,Activity,[1]; [8],no
R(−)-N6-(2-Phenylisopropyl)adenosine,Z Score,[1]; [7],−2.023
same,Z score,[1]; [4],−2.023
same,Activity,[1]; [22],no
R(−)-N-Allylnorapomorphine hydrobromide,Z Score,[1],−7.839
same,Z score,[1]; [4],−7.839
same,Activity,[1]; [5],yes
R-(−)-Desmethyldeprenyl hydrochloride,Z Score,[1],−0.5056
same,Z score,[1]; [16],−0.506
same,Activity,[1]; [17],no
R-(−)-Fluoxetine hydrochloride,Activity,[1],no
same,Z Score,[1]; [15],−0.1281
S(−)-Atenolol,Z Score,[1]; [23],0.617
same,Z score,[1]; [20],0.617
same,Activity,[1]; [21],no
S(−)-Timolol maleate,Z Score,[1]; [15],−0.7675
same,Z score,[1]; [4],−0.767
same,Activity,[1]; [22],no
S(−)-Willardiine,Z Score,[1],1.251
same,Z score,[1]; [20],1.251
same,Activity,[1]; [21],no
S(−)-p-Bromotetramisole oxalate,Z Score,[1],−1.295
same,Z score,[1]; [4],−1.295
same,Activity,[1]; [22],no
S-(−)-Carbidopa,Z Score,[1]; [7],−2.314
same,Z score,[1]; [16],−2.314
same,Activity,[1]; [17],no
S-(−)-Eticlopride hydrochloride,Z Score,[1],−5.158
S-(−)-Lisuride,Z Score,[1],−0.1473
same,Z score,[1],−0.147
SKF 83565 hydrobromide,Activity,[1]; [22],no
Terbutaline hemisulfate,Z Score,[1]; [23],0.6409
same,Z score,[1]; [20],0.641
same,Activity,[1]; [21],no
Tyrphoslin AG 34 [Tyrphoslin AG 34 (37)],EC50,[2]; [6],9920 nM
Tyrphostin AG 808,Z Score,[1]; [7],−1.315
same,Z score,[1]; [20],−1.315
same,Activity,[1]; [21],no
Vinblastine sulfate salt,Z Score,[1],−9.396
same,Z score,[1]; [4],−9.396
same,Activity,[1]; [5],yes
WB 64,Z Score,[1],−1.683
same,Z score,[1]; [20],−1.683
same,Activity,[1]; [21],no
m-Iodobenzylguanidine hemisulfate,Activity,[1],yes
same,Z Score,[1],−2.564
same,Z score,[1],−2.564
trans-(±)-ACPD,Z score,[1]; [20],0.315
same,Activity,[1]; [21],no
